Each molecule was assayed against T1, 5HT-transporter (Homo sapiens, UniProt P31645) (assay: Binding experiment for the 5HT-transporter ([3H]paroxetine, human platelet membranes)). Settings: [3H]paroxetine 0.5 nM, 60 min at 25° C.
T1 construct: Human platelet membranes (Oceanix Biosciences Corporation, Hanover, Md., USA) were thawed; tissue Oceanix Biosciences Corporation, Hanover, Md., USA; host or cells: human platelet membranes
Experimental: (§1) The interaction of the compounds of Formula (I) with α2C-adrenoceptor receptors was assessed in in vitro radioligand binding experiments. In general, a low concentration of a radioligand with a high binding affinity for a particular receptor or transporter is incubated with a sample of a tissue preparation enriched in a particular receptor or transporter or with a preparation of cells expressing cloned human receptors in a buffered medium. During the incubation, the radioligand binds to the receptor or transporter. When equilibrium of binding is reached, the receptor bound radioactivity is separated from the non-bound radioactivity, and the receptor- or transporter-bound activity is counted. The interaction of the test compounds with the receptor is assessed in competition binding experiments. Various concentrations of the test compound are added to the incubation mixture containing the receptor- or transporter preparation and the radioligand. The test compound in proportion to its binding affinity and its concentration inhibits binding of the radioligand. The radioligand used for […] receptor binding was [^3H]-raulwolscine.
Human platelet membranes (Oceanix Biosciences Corporation, Hanover, Md., USA) were thawed, diluted in buffer (Tris-HCl 50 mM, 120 mM NaCl and 5 mM KCl) and quickly (max 3 s) homogenised with an Ultraturrax homogenizer. […] Incubation was stopped by rapid filtration of the incubation mixture over GF/B filters, pre-wetted with 0.1% polyethyleneamine, using a Filtermate196 harvester (Packard, Meriden, Conn.). Filters were rinsed extensively with ice-cold buffer and radioactivity on the filters was counted in a Topcount liquid scintillation counter (Packard, Meriden, Conn.). Data were expressed as cpm. Imipramine (at 1 μM final concentration) was used to determine the non-specific binding.
(§2) Data from assays in the presence of compound were calculated as a percentage of total binding measured in the absence of test compound. Inhibition curves, plotting percent of total binding versus the log value of the concentration of the test compound, were automatically generated, and sigmoidal inhibition curves were fitted using non-linear regression. The pIC50 values of test compounds were derived from individual curves.

T1 sequence (P31645 whole entry): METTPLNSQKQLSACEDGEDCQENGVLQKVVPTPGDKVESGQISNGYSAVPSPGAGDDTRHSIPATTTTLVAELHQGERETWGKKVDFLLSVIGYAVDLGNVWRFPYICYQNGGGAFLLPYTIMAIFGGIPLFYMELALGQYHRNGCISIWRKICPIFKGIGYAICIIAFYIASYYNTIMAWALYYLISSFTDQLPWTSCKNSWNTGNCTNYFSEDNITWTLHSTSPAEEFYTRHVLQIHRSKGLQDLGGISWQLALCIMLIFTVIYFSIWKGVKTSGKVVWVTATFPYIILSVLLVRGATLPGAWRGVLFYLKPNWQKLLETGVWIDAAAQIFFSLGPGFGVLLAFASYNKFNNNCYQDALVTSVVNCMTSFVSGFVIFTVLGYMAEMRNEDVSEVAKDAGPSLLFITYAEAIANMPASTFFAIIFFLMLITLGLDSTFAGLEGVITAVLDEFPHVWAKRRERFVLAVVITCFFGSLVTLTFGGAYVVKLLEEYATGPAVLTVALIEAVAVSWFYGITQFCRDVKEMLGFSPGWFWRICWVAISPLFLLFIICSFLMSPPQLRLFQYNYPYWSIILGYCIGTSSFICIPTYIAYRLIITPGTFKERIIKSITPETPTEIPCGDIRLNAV

Row | Compound | h-5HTT pIC50
1 | C=CCCC(=O)NCc1ccc(-n2ccnc(NC3CCN(Cc4ccc5ccccc5c4)CC3)c2=O)cc1 [1-31] | 8.1

Same assay, conditions: [3H]paroxetine 0.5 nM, 60 min at 25° C., read-out: h-5HTT pIC50 (converted)

Row | Compound | IC50 [nM]
2 | CN(C)CCNC(=O)NCc1ccc(-n2ccnc(NC3CCN(Cc4ccc5ccccc5c4)CC3)c2=O)cc1 [1-44] | 7.94
3 | CN(C)C(=O)Cn1ccnc(N2CCN(Cc3cccc4ccccc34)CC2)c1=O [9-24] | > 10000
4 | O=C(Cn1ccnc(NC2CCN(Cc3ccc4ccccc4c3)CC2)c1=O)N1CCC(C(F)(F)F)CC1 [2-16] | 1260
5 | O=c1c(NC2CCN(Cc3ccc4ccccc4c3)CC2)nccn1CCO [3-01] | 100
6 | O=c1[nH]c(-c2cccc(Br)c2)c(Cl)nc1NC1CCN(Cc2ccc3ccccc3c2)CC1 [7-01] | 501
7 | O=c1c(NC2CCN(Cc3ccc4ccccc4c3)CC2)nccn1CCOc1ccccc1 [3-09] | 12.6
8 | CCOC(=O)CCCCn1ccnc(NC2CCN(Cc3cnc4ccccc4c3)CC2)c1=O [9-21] | 2000
9 | COC(=O)c1ccc(-c2c(Cl)nc(NC3CCN(Cc4ccc5ccccc5c4)CC3)c(=O)n2Cc2ccc(OC)cc2)cc1 [8-04] | 794
10 | O=C(CCn1ccnc(NC2CCN(Cc3ccc4ccccc4c3)CC2)c1=O)c1ccccc1 [5-08] | 15.8
11 | CCOC(CN(Cc1ccccc1)C(=O)Cn1ccnc(NC2CCN(Cc3ccc4ccccc4c3)CC2)c1=O)OCC [1-20] | 100
12 | CC(C)(C)C(=O)Cn1ccnc(NC2CCN(Cc3ccc4ccccc4c3)CC2)c1=O [5-04] | 398
13 | CC(C)(C)OC(=O)NCc1ccc(Cn2ccnc(NC3CCN(Cc4ccc5ccccc5c4)CC3)c2=O)cc1 [1-34] | 79.4
14 | COCCNC(=O)NCc1ccc(-n2ccnc(NC3CCN(Cc4ccc5ccccc5c4)CC3)c2=O)cc1 [1-45] | 25.1
15 | CC(CC(=O)NCc1ccc(-n2ccnc(NC3CCN(Cc4ccc5ccccc5c4)CC3)c2=O)cc1)CC(C)(C)C (stereo not drawn) [1-27] | 20
16 | O=c1c(NC2CCN(Cc3ccc4ccccc4c3)CC2)nccn1-c1ccc2c(c1)CN(CCO)CC2 [6-12] | 39.8

Each molecule was assayed against T2, human adrenergic-α2A receptor (Homo sapiens, UniProt P08913) (assay: Radioligand binding experiment for hα2A-adrenergic receptor ([3H]raulwolscine)). Settings: [3H]raulwolscine 1 nM, 60 minutes at 25° C.
T2 construct: expressed in transfected cells; host or cells: CHO cells, stably transfected; membrane preparation
T2 sequence (P08913 1-465): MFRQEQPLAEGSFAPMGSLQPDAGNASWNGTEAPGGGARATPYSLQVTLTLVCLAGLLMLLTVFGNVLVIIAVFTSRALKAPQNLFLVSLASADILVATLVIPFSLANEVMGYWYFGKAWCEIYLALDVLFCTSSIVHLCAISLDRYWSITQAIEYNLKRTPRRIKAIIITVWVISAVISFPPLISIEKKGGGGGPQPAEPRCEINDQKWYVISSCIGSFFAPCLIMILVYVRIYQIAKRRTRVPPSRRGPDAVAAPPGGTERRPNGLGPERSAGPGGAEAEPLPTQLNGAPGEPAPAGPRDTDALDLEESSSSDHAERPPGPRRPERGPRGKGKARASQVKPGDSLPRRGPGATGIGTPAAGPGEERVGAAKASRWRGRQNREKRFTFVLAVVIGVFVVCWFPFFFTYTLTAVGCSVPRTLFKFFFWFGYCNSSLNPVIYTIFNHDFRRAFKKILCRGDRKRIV
Experimental: as §1
(§3) CHO cells, stabile transfected with human adrenergic-α2A, -α2B or α2C receptor cDNA, were cultured in Dulbecco's Modified Eagle's Medium (DMEM)/Nutrient mixture Ham's F12 (ratio 1:1)(Gibco, Gent-Belgium) supplemented with 10% heat inactivated fetal calf serum (Life Technologies, Merelbeke-Belgium) and antibiotics (100 IU/ml penicillin G, 100 μg/ml streptomycin sulphate, 110 μg/ml pyruvic acid and 100 μg/ml L-glutamine). One day before collection, cells were induced with 5 mM sodiumbutyrate. Upon 80-90% of confluence, cells were scraped in phosphate buffered saline without Ca^2+ and Mg^2+ and collected by centrifugation at 1500×g for 10 minutes. The cells were homogenised in Tris-HCl 50 mM using an Ultraturrax homogenizer and centrifuged for 10 minutes at 23,500×g. The pellet was washed once by resuspension and rehomogenization and the final pellet was resuspended in Tris-HCl, divided in 1 ml aliquots and stored at −70° C.
(§4) Membranes were thawed and re-homogenized in incubation buffer (glycylglycine 25 mM, pH 8.0). In a total volume of 500 μl, 2-10 μg protein was incubated with [^3H]raulwolscine (NET-722) (New England Nuclear, USA) (1 nM final concentration) with or without competitor for 60 minutes at 25° C. followed by rapid filtration over GF/B filter using a Filtermate196 harvester (Packard, Meriden, Conn.). Filters were rinsed extensively with ice-cold rinsing buffer (Tris-HCl 50 mM pH 7.4). Filter-bound radioactivity was determined by scintillation counting in a Topcount (Packard, Meriden, Conn.) and results were expressed as counts per minute (cpm). Non-specific binding was determined in the presence of 1 μM oxymetazoline for hα2A- and hα2B receptors and 1 μM spiroxatrine for hα2C receptors.
as §2

Row | Compound | h-α2A pIC50
17 | C=CCCC(=O)NCc1ccc(-n2ccnc(NC3CCN(Cc4ccc5ccccc5c4)CC3)c2=O)cc1 [1-31] | 6.5

Same assay, conditions: [3H]raulwolscine 1 nM, 60 minutes at 25° C.; read-out: h-α2A pIC50 (converted)

Row | Compound | IC50 [nM]
18 | CN(C)CCNC(=O)NCc1ccc(-n2ccnc(NC3CCN(Cc4ccc5ccccc5c4)CC3)c2=O)cc1 [1-44] | 63.1
19 | CN(C)C(=O)Cn1ccnc(N2CCN(Cc3cccc4ccccc34)CC2)c1=O [9-24] | 5010
20 | O=C(Cn1ccnc(NC2CCN(Cc3ccc4ccccc4c3)CC2)c1=O)N1CCC(C(F)(F)F)CC1 [2-16] | 501
21 | O=c1c(NC2CCN(Cc3ccc4ccccc4c3)CC2)nccn1CCO [3-01] | 251
22 | O=c1[nH]c(-c2cccc(Br)c2)c(Cl)nc1NC1CCN(Cc2ccc3ccccc3c2)CC1 [7-01] | 1580
23 | O=c1c(NC2CCN(Cc3ccc4ccccc4c3)CC2)nccn1CCOc1ccccc1 [3-09] | 316
24 | CCOC(=O)CCCCn1ccnc(NC2CCN(Cc3cnc4ccccc4c3)CC2)c1=O [9-21] | 1260
25 | COC(=O)c1ccc(-c2c(Cl)nc(NC3CCN(Cc4ccc5ccccc5c4)CC3)c(=O)n2Cc2ccc(OC)cc2)cc1 [8-04] | 1260
26 | O=C(CCn1ccnc(NC2CCN(Cc3ccc4ccccc4c3)CC2)c1=O)c1ccccc1 [5-08] | 100
27 | CCOC(CN(Cc1ccccc1)C(=O)Cn1ccnc(NC2CCN(Cc3ccc4ccccc4c3)CC2)c1=O)OCC [1-20] | 398
28 | CC(C)(C)C(=O)Cn1ccnc(NC2CCN(Cc3ccc4ccccc4c3)CC2)c1=O [5-04] | 200
29 | CC(C)(C)OC(=O)NCc1ccc(Cn2ccnc(NC3CCN(Cc4ccc5ccccc5c4)CC3)c2=O)cc1 [1-34] | 251
30 | COCCNC(=O)NCc1ccc(-n2ccnc(NC3CCN(Cc4ccc5ccccc5c4)CC3)c2=O)cc1 [1-45] | 398
31 | CC(CC(=O)NCc1ccc(-n2ccnc(NC3CCN(Cc4ccc5ccccc5c4)CC3)c2=O)cc1)CC(C)(C)C (stereo not drawn) [1-27] | 631
32 | O=c1c(NC2CCN(Cc3ccc4ccccc4c3)CC2)nccn1-c1ccc2c(c1)CN(CCO)CC2 [6-12] | 31.6

Each molecule was assayed against T3, human adrenergic-α2C receptor (Homo sapiens, UniProt P18825) (assay: Radioligand binding experiment for hα2C-adrenoceptor ([3H]raulwolscine)). Settings: [3H]raulwolscine 1 nM, 60 minutes at 25° C.
T3 construct: expressed in transfected cells; host or cells: CHO cells, stably transfected; membrane preparation
T3 sequence (P18825 1-462): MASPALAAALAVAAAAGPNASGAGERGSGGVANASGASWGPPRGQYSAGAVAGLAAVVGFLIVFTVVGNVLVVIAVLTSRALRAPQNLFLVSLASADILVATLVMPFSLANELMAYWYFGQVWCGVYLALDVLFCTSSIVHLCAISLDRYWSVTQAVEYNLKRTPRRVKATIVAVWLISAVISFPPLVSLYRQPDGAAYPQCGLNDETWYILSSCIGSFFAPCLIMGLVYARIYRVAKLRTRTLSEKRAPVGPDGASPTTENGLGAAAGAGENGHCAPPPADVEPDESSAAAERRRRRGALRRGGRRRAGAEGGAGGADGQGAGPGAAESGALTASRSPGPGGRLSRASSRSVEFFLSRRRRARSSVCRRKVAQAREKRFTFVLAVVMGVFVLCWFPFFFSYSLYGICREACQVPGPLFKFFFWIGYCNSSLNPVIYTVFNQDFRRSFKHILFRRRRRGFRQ
Experimental: as §1, §3, §4, §2

Row | Compound | h-α2C pIC50
33 | C=CCCC(=O)NCc1ccc(-n2ccnc(NC3CCN(Cc4ccc5ccccc5c4)CC3)c2=O)cc1 [1-31] | 7.5

Same assay, conditions: [3H]raulwolscine 1 nM, 60 minutes at 25° C.; read-out: h-α2C pIC50 (converted)

Row | Compound | IC50 [nM]
34 | CN(C)CCNC(=O)NCc1ccc(-n2ccnc(NC3CCN(Cc4ccc5ccccc5c4)CC3)c2=O)cc1 [1-44] | 12.6
35 | CN(C)C(=O)Cn1ccnc(N2CCN(Cc3cccc4ccccc34)CC2)c1=O [9-24] | 398
36 | O=C(Cn1ccnc(NC2CCN(Cc3ccc4ccccc4c3)CC2)c1=O)N1CCC(C(F)(F)F)CC1 [2-16] | 126
37 | O=c1c(NC2CCN(Cc3ccc4ccccc4c3)CC2)nccn1CCO [3-01] | 25.1
38 | O=c1[nH]c(-c2cccc(Br)c2)c(Cl)nc1NC1CCN(Cc2ccc3ccccc3c2)CC1 [7-01] | 794
39 | O=c1c(NC2CCN(Cc3ccc4ccccc4c3)CC2)nccn1CCOc1ccccc1 [3-09] | 100
40 | CCOC(=O)CCCCn1ccnc(NC2CCN(Cc3cnc4ccccc4c3)CC2)c1=O [9-21] | 200
41 | COC(=O)c1ccc(-c2c(Cl)nc(NC3CCN(Cc4ccc5ccccc5c4)CC3)c(=O)n2Cc2ccc(OC)cc2)cc1 [8-04] | 1260
42 | O=C(CCn1ccnc(NC2CCN(Cc3ccc4ccccc4c3)CC2)c1=O)c1ccccc1 [5-08] | 50.1
43 | CCOC(CN(Cc1ccccc1)C(=O)Cn1ccnc(NC2CCN(Cc3ccc4ccccc4c3)CC2)c1=O)OCC [1-20] | 25.1
44 | CC(C)(C)C(=O)Cn1ccnc(NC2CCN(Cc3ccc4ccccc4c3)CC2)c1=O [5-04] | 39.8
45 | CC(C)(C)OC(=O)NCc1ccc(Cn2ccnc(NC3CCN(Cc4ccc5ccccc5c4)CC3)c2=O)cc1 [1-34] | 100
46 | COCCNC(=O)NCc1ccc(-n2ccnc(NC3CCN(Cc4ccc5ccccc5c4)CC3)c2=O)cc1 [1-45] | 31.6
47 | CC(CC(=O)NCc1ccc(-n2ccnc(NC3CCN(Cc4ccc5ccccc5c4)CC3)c2=O)cc1)CC(C)(C)C (stereo not drawn) [1-27] | 63.1
48 | O=c1c(NC2CCN(Cc3ccc4ccccc4c3)CC2)nccn1-c1ccc2c(c1)CN(CCO)CC2 [6-12] | 5.01
